# Experimental data: patent publication US9969758B2, “Antimicrobial compounds” (BIOMERIEUX, priority 2014, dated 2018)
# Columns and labels:
# [1] = test system: Salmonella isolates; assay: MIC by agar dilution; type: cell-based, Salmonella spp; settings: Salmonella, read-out: MICs
# Description: (§1) Bacterial isolates. […] These included Citrobacter freundii (n=5), other species of Citrobacter (n=4), Enterobacter aerogenes (n=1), Enterobacter cloacae (n=27), Escherichia coli (n=53), Klebsiella oxytoca (n=5), Klebsiella pneumoniae (n=87), Kluyvera spp (n=1), Proteus mirabilis (n=8), Providencia rettgeri (n=2), Salmonella spp (n=3), and Serratia marcescens (n=1). Among these 197 isolates, there were 128 (65%) carbapenemase producers, including; 87 with NDM-1, 9 with IMP, 11 with KPC, 14 with OXA-48 and 7 with VIM. The majority of the carbapenemase producers jointly produced broad-spectrum β-lactamases (BSBL) or cephalosporinases (AmpC β-lactamases), but the latter are not documented for the sake of clarity.
# (§2) Determining the minimum inhibitory concentrations (MIC). All the MICs were determined using an agar dilution method. This required use of a medium without a defined antagonist (peptone-free), prepared as described previously with the inclusion of 2% horse blood lysed with saponin, 25.0 μg/mL of NAD and 25.0 μg/mL of hemin [17]. […] The MICs of fosfomycin were determined by the same method, except that the IsoSensitest medium (Oxoid, Basingstoke, United Kingdom) was used, plus 25.0 μg/mL of glucose-6-phosphate (Sigma, Poole, United Kingdom) and an extended range of fosfomycin concentrations. […]
# [2] = test system: E. coli (53); assay: MIC by agar dilution; type: cell-based, Escherichia coli
# Description: as §1
# (§3) Determining the minimum inhibitory concentrations (MIC). All the MICs were determined using an agar dilution method. This required use of a medium without a defined antagonist (peptone-free), prepared as described previously with the inclusion of 2% horse blood lysed with saponin, 25.0 μg/mL of NAD and 25.0 μg/mL of hemin [17]. The compounds tested were dissolved in sterile deionised water and incorporated into the agar medium in a concentration range of 0.0031 to 8.0 μg/mL (0.016 to 32 μg/mL for gram-positive bacteria). All the isolates were prepared at a density equivalent to 0.5 McFarland units in sterile deionised water using a densitometer (approximately 1.5×10^8 CFU/mL), and then diluted to 1 for 15. An aliquot of 1 μL of each diluted suspension was then placed onto plates with a multispot inoculator to give the final recommended inoculation of 10 000 CFU/spot. The MICs of fosfomycin were determined by the same method, except that the IsoSensitest medium (Oxoid, Basingstoke, United Kingdom) was used, plus 25.0 μg/mL of glucose-6-phosphate (Sigma, Poole, United Kingdom) and an extended range of fosfomycin concentrations. All the dishes (including the antimicrobial-free controls) were incubated for 22 hours at 37° C. All the tests were performed on at least two independent replicates in order to examine the reproducibility.
# [3] = test system: E. cloacae (27); assay: MIC by agar dilution; type: cell-based, Enterobacter cloacae
# Description: as §1, §3
# [4] = test system: AmpC (22); assay: MIC by agar dilution; type: cell-based, Enterobacteriaceae
# Description: as §1, §3
# [5] = test system: K. pneumoniae (87); assay: MIC by agar dilution; type: cell-based, Klebsiella pneumoniae; settings: Klebsiella pneumoniae
# Description: as §1, §3
# [6] = test system: Escherichia coli; assay: Growth and colour on Salmonella detection medium; type: cell-based; settings: added to the chromID Salmonella medium (0.002 g/L)
# Description: The present Example 3 aims to compare the detection specificity of a reaction medium according to the invention, intended to detect bacteria of the genus Salmonella, namely the medium “modified chromlD Salmonella” against a reference detection medium for the same bacteria, namely the medium “chromlD Salmonella”.
# The respective compositions of the reaction medium according to the present invention and of the reference reaction medium are presented below, within Table 2.
# [7] = test system: E. aerogenes (n=1); assay: MIC by agar dilution; type: cell-based, Enterobacter aerogenes
# Description: as §1, §2
# [8] = test system: Enterobacteriaceae (197); assay: MIC by agar dilution; type: cell-based
# Description: as §1, §3
# [9] = test system: Citrobacter (n=9); assay: MIC by agar dilution; type: cell-based
# Description: as §1, §3
# [10] = test system: carbapenemase-producing Enterobacteriaceae; assay: MIC by agar dilution; type: cell-based
# Description: as §1, §3
# [11] = test system: Enterobacteriaceae with a broad-spectrum β-lactamase; assay: MIC by agar dilution; type: cell-based
# Description: as §1, §3
# [12] = test system: E. faecium (34); assay: MIC by agar dilution; type: cell-based, Enterococcus faecium
# Description: (§4) A collection of 50 isolates of Staphylococci aureus included 36 strains of methicillin-resistant S. aureus (MRSA) frequently encountered in Europe, including strains isolated in Belgium, Finland, France, Germany and the United Kingdom. Another strain of MRSA, NCTC 11939, was included as a control, as well as a methicillin-sensitive control (NCTC 6571). Twelve other isolates of methicillin-sensitive Staphylococcus aureus (MSSA) recently collected from blood cultures were also included. Finally, 50 isolates of enterococci included two control strains (Enterococcus faecalis NCTC 755 and Enterococcus faecium NCTC 7171) and 48 isolates originating from clinical samples obtained from at least three different hospitals. The clinical isolates included E. faecalis (n=10), E. faecium (n=33), Enterococcus casseliflavus (n=3), Enterococcus gallinarum (n=2).
# as §3
# [13] = test system: S. marcescens (n=1); assay: MIC by agar dilution; type: cell-based, Serratia marcescens
# Description: as §1, §2
# [14] = test system: K. oxytoca; assay: MIC by agar dilution; type: cell-based, Klebsiella oxytoca; settings: five isolates of K. oxytoca
# Description: as §1, §2
# [15] = test system: Kluyvera sp. (n=1); assay: MIC by agar dilution; type: cell-based, Kluyvera spp
# Description: as §1, §2
# [16] = test system: All S. aureus (50); assay: MIC by agar dilution; type: cell-based, Staphylococcus aureus
# Description: as §4, §3
# [17] = test system: methicillin-sensitive Staphylococcus aureus; assay: MIC by agar dilution; type: cell-based
# Description: as §4, §3
# [18] = test system: methicillin-resistant Staphylococcus aureus; assay: MIC by agar dilution; type: cell-based
# Description: as §4, §3
# [19] = test system: glycopeptide-resistant enterococci; assay: MIC by agar dilution; type: cell-based
# Description: as §4, §3
# [20] = test system: All Enterococci (50); assay: MIC by agar dilution; type: cell-based
# Description: as §4, §3
# [21] = test system: E. faecalis (11); assay: MIC by agar dilution; type: cell-based, Enterococcus faecalis; settings: Enterococcus faecalis
# Description: as §4, §3
# [22] = read-out: Modal MIC (most frequent MIC)
smiles,measurement,setting,value
"C[C@H](NC(=O)[C@@H](N)CCl)P(=O)(O)O [β-Cl-Alafosfalin, β-chloro-L-alanyl-L-1-aminoethylphosphonic acid]",MIC,[1],2 to 4 µg/mL
same,concentration by which growth of all the isolates was inhibited,[2]; 53 isolates of E. coli,0.5 µg/mL
same,activity relative to that of alafosfalin,[2]; E. coli,at least twice
same,activity relative to that of fosfomycin,[2]; E. coli,at least eight
same,MIC Range,[2]; E. coli (53),≤0.031-0.5 ^ μg/mL
same,MIC50,[2]; Escherichia coli,0.063 µg/mL
same,MIC90,[2]; Escherichia coli,0.125 µg/mL
same,MIC,"[2]; Escherichia coli, read-out: Modal MIC (most frequent MIC)",0.063 µg/mL
same,MIC Range,[3]; E. cloacae (27),0.063 to 1 µg/mL
same,concentration by which all the isolates were inhibited,[3]; E. cloacae isolates (n=27),1 µg/mL
same,MIC50,[3]; Enterobacter cloacae,0.5 µg/mL
same,MIC90,[3]; Enterobacter cloacae,0.5 µg/mL
same,MIC,"[3]; Enterobacter cloacae, read-out: Modal MIC (most frequent MIC)",0.5 µg/mL
same,MIC50,[4],2 µg/mL
same,MIC90,[4],> 8 µg/mL
same,MIC,[4]; [22],> 8 µg/mL
same,MIC50,[5],1 µg/mL
same,MIC90,[5],8 µg/mL
same,MIC,[5]; [22],1 µg/mL
same,percent of isolates inhibited at 8 µg/mL,[5]; read-out: isolates inhibited,93%
same,effect on the osidase activities of the strains of Escherichia coli,[6],selectively inhibit
same,concentration to which all the isolates were sensitive,[7],≤ 2 µg/mL
same,MIC50,[8],0.5 µg/mL
same,MIC90,[8],8 µg/mL
same,MIC,[8]; [22],1 µg/mL
same,concentration to which all the isolates were sensitive,[9],≤ 2 µg/mL
same,MIC50,[10],0.5 µg/mL
same,MIC90,[10],2 µg/mL
same,MIC,[10]; [22],1 µg/mL
same,MIC50,[11],0.5 µg/mL
same,MIC90,[11],> 8 µg/mL
same,MIC,[11]; [22],0.063 µg/mL
same,MIC Range,[12]; E. faecium (34),2 to 32 µg/mL
same,MIC50,[12]; Enterococcus faecium,4 µg/mL
same,MIC90,[12]; Enterococcus faecium,8 µg/mL
same,MIC,"[12]; Enterococcus faecium, read-out: Modal MIC (most frequent MIC)",4 µg/mL
same,concentration to which all the isolates were sensitive,[13],≤ 2 µg/mL
same,concentration by which all isolates were inhibited,[14],≤ 2 µg/mL
same,concentration to which all the isolates were sensitive,[15],≤ 2 µg/mL
same,MIC Range,[16]; All S. aureus (50),0.125 to 4 µg/mL
same,MIC50,[16]; Staphylococcus aureus,1 µg/mL
same,MIC90,[16]; Staphylococcus aureus,2 µg/mL
same,MIC,"[16]; Staphylococcus aureus, read-out: Modal MIC (most frequent MIC)",2 µg/mL
same,MIC Range,[17]; MSSA (13),0.5 to 4 µg/mL
same,MIC50,"[17]; Staphylococcus aureus, MSSA",1 µg/mL
same,MIC90,"[17]; Staphylococcus aureus, MSSA",2 µg/mL
same,MIC,"[17]; Staphylococcus aureus, MSSA, read-out: Modal MIC (most frequent MIC)",1 µg/mL
same,MIC Range,[18]; MRSA (37),0.125 to 2 µg/mL
same,concentration by which all the isolates were inhibited,[18]; MRSA isolates,2.0 µg/mL
same,MIC50,"[18]; Staphylococcus aureus, MRSA",2 µg/mL
same,MIC90,"[18]; Staphylococcus aureus, MRSA",2 µg/mL
same,MIC,"[18]; Staphylococcus aureus, MRSA, read-out: Modal MIC (most frequent MIC)",2 µg/mL
same,MIC50,[19],8 µg/mL
same,MIC90,[19],16 µg/mL
same,MIC,[19]; [22],4 µg/mL
same,MIC50,[20],8 µg/mL
same,MIC90,[20],16 µg/mL
same,MIC,[20]; [22],8 µg/mL
same,MIC50,[21],8 µg/mL
same,MIC90,[21],16 µg/mL
same,MIC,[21]; [22],8 µg/mL
